Measured values: ChEMBL document CHEMBL4376877, “Stepwise Evolution of Fragment Hits against MAPK Interacting Kinases 1 and 2” (J Med Chem, 2020)
≈ marks a conversion by molar mass, not a printed value.

Key:
[1] = Clearance in mouse liver microsomes; type: ADME, Microsome; details: read-out: CLH
[2] = AUC (0 to 8 hrs) in mouse at 5 mg/kg, po measured up to 8 hrs; type: ADME, organism-based; set-up: dose 5 mg/kg, time < 8 hr, route oral; details: in vivo
[3] = Apparent volume of distribution in mouse at 5 mg/kg, po; type: ADME, organism-based; details: in vivo
[4] = Oral bioavailability in mouse at 5 mg/kg; type: ADME, organism-based; details: in vivo
[5] = Permeability across basolateral side to apical side of membrane in human Caco2 cells; type: ADME, cell-based; details: Caco-2, read-out: permeability
[6] = Clearance in mouse at 5 mg/kg, po; type: ADME, organism-based; details: in vivo
[7] = Clearance in human liver microsomes; type: ADME, Microsome; details: read-out: CLH
[8] = Terminal elimination half-life in mouse at 5 mg/kg, po; type: ADME, organism-based; details: in vivo, read-out: beta t1/2 (converted)
[9] = Permeability across apical side to basolateral side of membrane in human Caco2 cells; type: ADME, cell-based; details: Caco-2, read-out: permeability
[10] = Tmax in mouse at 5 mg/kg, po; type: ADME, organism-based; details: in vivo
[11] = Cmax in mouse at 5 mg/kg, po measured after 0.5 hrs; type: ADME, organism-based; set-up: dose 5 mg/kg, route oral; details: in vivo
[12] = AUC (0 to 8 hrs) in mouse at 1 mg/kg, iv measured up to 8 hrs; type: ADME, organism-based; set-up: time < 8 hr, dose 1 mg/kg, route intravenous; details: in vivo
[13] = Thermodynamic solubility of compound at pH 7.4; type: physicochemical; details: buffer, read-out: Therm_solubility
[14] = Apparent volume of distribution in mouse at 1 mg/kg, iv; type: ADME, organism-based; details: in vivo, read-out: Vz
[15] = AUC (0 to infinity) in mouse at 1 mg/kg, iv; type: ADME, organism-based; set-up: dose 1 mg/kg, time infinity, route intravenous; details: in vivo
[16] = Clearance in mouse at 1 mg/kg, iv; type: ADME, organism-based; details: in vivo
[17] = Terminal elimination half life in mouse at 1 mg/kg, iv; type: ADME, organism-based; details: in vivo, read-out: beta t1/2 (converted)
[18] = AUC (0 to infinity) in mouse at 5 mg/kg, po; type: ADME, organism-based; set-up: dose 5 mg/kg, route oral, time infinity; details: in vivo
[19] = Cmax in mouse at 5 mg/kg, po measured after 10 mins; type: ADME, organism-based; set-up: dose 5 mg/kg, route oral; details: in vivo
[20] = Initial plasma concentration in mouse at 1 mg/kg, iv; type: ADME, organism-based

Row | microsomal CLint [1] | AUC(0-t) at 8 h [2] | Vz [3] | bioavailability [4] | Papp B→A [5] | CL/F [6] | microsomal CLint [7] | half-life [8] | Papp A→B [9] | Tmax [10] | Cmax [11] | AUC(0-t) at 8 h [12] | solubility thermodynamic [13] | Vd [14] | AUC(0-inf) [15] | clearance [16] | half-life [17] | AUC(0-inf) [18] | Cmax [19] | C0 [20] | Structure (SMILES)
1 | 3.1 µL/min/mg | 2080 ng·h/mL | 8.7 L/kg | 73% | 25 ×10⁻⁶ cm/s | 35 mL/min/kg | < 10 µL/min/mg | 2.8 h | 10 ×10⁻⁶ cm/s | 0.5 h | 658 ng/mL | 568 ng·h/mL | 28 µg/mL (≈ 74 µM) | 5.5 L/kg | 579 ng·h/mL | 28.3 mL/min/kg | 2.2 h | 2360 ng·h/mL | – | – | CC(C)Oc1cc(-c2cncc(-c3cnn(C4COC4)c3)c2)ccc1C(N)=O
2 | 251 µL/min/mg | – | – | – | 33 ×10⁻⁶ cm/s | – | 18 µL/min/mg | – | 8.3 ×10⁻⁶ cm/s | – | – | – | 11 µg/mL (≈ 32.7 µM) | – | – | – | – | – | – | – | Cc1[nH]ncc1-c1cncc(-c2ccc(C(N)=O)c(OC(C)C)c2)c1
3 | 25.1 µL/min/mg | – | – | – | 21 ×10⁻⁶ cm/s | – | 7.9 µL/min/mg | – | 27 ×10⁻⁶ cm/s | – | – | – | 7.3 µg/mL (≈ 20.8 µM) | – | – | – | – | – | – | – | Cc1c(-c2cncc(-c3ccc(C(N)=O)c(OC(C)C)c3)c2)cnn1C
4 | 9.4 µL/min/mg | 488 ng·h/mL | 23 L/kg | 61% | 20 ×10⁻⁶ cm/s | 168 mL/min/kg | 5.8 µL/min/mg | 1.6 h | 32 ×10⁻⁶ cm/s | 0.17 h | – | 160 ng·h/mL | 45 µg/mL (≈ 176 µM) | 30 L/kg | 166 ng·h/mL | 100 mL/min/kg | 3.4 h | 494 ng·h/mL | 615 ng/mL | 678 ng/mL | CC(C)Oc1cc(-c2cccnc2)ccc1C(N)=O
5 | 62 µL/min/mg | – | – | – | 41 ×10⁻⁶ cm/s | – | – | – | 6.2 ×10⁻⁶ cm/s | – | – | – | 10 µg/mL (≈ 28.5 µM) | – | – | – | – | – | – | – | Cc1n[nH]c(C)c1-c1cncc(-c2ccc(C(N)=O)c(OC(C)C)c2)c1
